Measurements from PubChem BioAssay (NCI).
Values joined by “and” are separate entries in the source; they are usually repeats but may differ in a detail not shown here. Equal values may be shown once.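 Exposure lasted 48 hours, with cells grown in 96-well plates and compounds tested at five concentrations. At the GI50, growth is halved. TGI: concentration producing complete growth inhibition.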

What was measured:
Experiment in all cases: growth of human tumour cells (NCI), 48 h
SK-MEL-28 melanoma = system: SK-MEL-28 melanoma
HOP-62 NSCLC = system: HOP-62 NSCLC
OVCAR-4 ovarian = system: OVCAR-4 ovarian
RXF 393 renal = system: RXF 393 renal
SF-268 CNS = system: SF-268 CNS
ACHN renal = system: ACHN renal
HT29 colon = system: HT29 colon
CCRF-CEM leukemia = system: CCRF-CEM leukemia
SR leukemia = system: SR leukemia
DU-145 prostate = system: DU-145 prostate

| SMILES | TGI (SK-MEL-28 melanoma) | TGI (HOP-62 NSCLC) | TGI (OVCAR-4 ovarian) | TGI (RXF 393 renal) | TGI (SF-268 CNS) | TGI (ACHN renal) | TGI (HT29 colon) | TGI (CCRF-CEM leukemia) | TGI (SR leukemia) | GI50 (SK-MEL-28 melanoma) [µM] | GI50 (HOP-62 NSCLC) [µM] | GI50 (OVCAR-4 ovarian) [µM] | GI50 (DU-145 prostate) [µM] | TGI (DU-145 prostate) [µM] | GI50 (RXF 393 renal) [µM] | GI50 (SF-268 CNS) [µM] | GI50 (ACHN renal) [µM] | GI50 (HT29 colon) [µM] | GI50 (CCRF-CEM leukemia) [µM] | GI50 (SR leukemia) [µM] |
| --- | --- | --- | --- | --- | --- | --- | --- | --- | --- | --- | --- | --- | --- | --- | --- | --- | --- | --- | --- | --- |
| NC(=O)C(c1ccccc1)N1CCOCC1 (configuration not stated) | > 100 µM | > 100 µM | > 100 µM | > 100 µM | > 100 µM | > 100 µM | > 100 µM | > 100 µM | > 100 µM |  |  |  |  |  |  |  |  |  |  |  |
| Cc1ccc(SC2=CC(=O)c3nc4ccccc4c4ccnc2c34)cc1 | > 100 µM | > 100 µM | 32.6 µM | 50 µM | > 70.7 µM | > 100 µM | > 100 µM |  |  | > 100 | 97.9 | 17.4 | 43 | > 67.4 | 21.9 | 29.7 | 31 | 38 |  |  |
| COc1ccc(-n2c3c(c4c(CN5CCOCC5)c(O)ccc42)CCc2ccccc2C3=O)cc1 |  | > 100 µM |  | > 100 µM | > 100 µM | > 100 µM | 0.0934 µM |  |  |  | > 100 |  | 67.9 | > 100 | 14.8 | > 100 | > 100 |  |  |  |
| CC(=O)OCC1OC(OC2CC3C(C)(C)C(O)CC[C@]3(C)C3CCC45CC4(CC[C@H]5C(C)CC(O)C4OC4(C)C)[C@]23C)C(O)C(O)C1O (some centres not stated) | 14.3 µM and 21.3 µM | 19.1 µM and 29.5 µM | 15.8 µM and 30.7 µM | 10.7 µM and 38.5 µM | 13.4 µM and 28.4 µM | 15.5 µM and 33.6 µM | 15.7 µM and 27.7 µM | 6.74 µM and 6.72 µM | 3.53 µM and 4.13 µM | 8.37 | 14.2 | 13.9 |  |  | 9.7 | 11 | 19.2 | 12.9 | 2.56 | 1.93 |
| O=C(CC(=O)N1N=C(N2c3ccccc3Sc3ccccc32)CC1c1ccccc1)Nc1ccc(Cl)cc1 (configuration not stated) | > 100 µM | > 100 µM | > 100 µM | > 100 µM | > 100 µM | > 100 µM | > 100 µM |  |  |  |  |  |  |  |  |  |  |  |  |  |
| CSc1ccc2c3c(n(C[C@H](O)CO)c(=O)c2c1)-c1ccccc1C3=O | 48.8 µM | 7.27 µM | > 100 µM | 23.3 µM | > 100 µM |  | 6.38 µM | 7.1 µM |  | 4.46 | 1.83 | 6.38 | 2.5 | > 100 | 3.5 | 4.64 |  | 1.33 | 1.02 |  |
| COc1cc2c(cc1O)CC13CCC(=O)N1CCc1cc(OC)c(O)c-2c13 (configuration not stated) | > 68.1 µM | > 68.1 µM | > 68.1 µM | > 68.1 µM | > 68.1 µM | > 68.1 µM | > 68.1 µM | > 68.1 µM | > 68.1 µM |  |  |  |  |  |  |  |  |  |  |  |
| COc1ccc(/C=C\c2cc(OC)c(OC)c(OC)c2)cc1OC(=O)CCC(=O)O | > 100 µM | > 100 µM | > 100 µM |  | 45.1 µM | > 100 µM | 12.2 µM | > 100 µM | > 100 µM |  |  |  |  |  |  |  |  |  |  |  |
| COc1ccccc1C#Cc1ccccc1C#CCCCCCC#Cc1ccccc1C#Cc1ccccc1OC | > 100 µM | > 100 µM | 84.4 µM | > 100 µM | > 100 µM | > 100 µM | > 100 µM | > 100 µM |  | 68.6 | > 100 | 13.7 | > 100 | > 100 | 26.6 | 96.5 | > 100 | 24.6 | 65.4 |  |
